{"source": "patent US20260001876A1", "about": "“Compounds and Their Use as PDE4 Activators” (Mironid Limited, priority 2022, published 2026)", "data": [{"system": "m-IMCD3 cells", "assay": "Inhibition of PGE2-stimulated in vitro cyst formation in m-IMCD3 cells (3D culture)", "assay_type": "cell-based", "settings": "Mus musculus, mIMCD3, 144 h; 3 μM; mean cyst area; 100% for (DMSO + PGE2) and 0% for DMSO control; 6 days of culture; read-out: % Cyst area* after incubation with 3 μM test compound", "procedure": "(§1) HEK 293 and MDCK cells (Public Health England, Cell Culture Collections) were maintained in Dulbecco's Modified Eagle's Medium (DMEM) supplemented with 10% (v/v) fetal bovine serum (FBS) (Seralab), 2 mM L-glutamine and 100 U/mL penicillin streptomycin cocktail (ThermoFisher); termed complete media. Clonal HEK 293 cell lines were maintained in complete media supplemented with 0.6 mg/ml G418 (Enzo Life Sciences). Mouse inner medullary collecting duct (m-IMCD3) cells [American Type Culture Collection (ATCC)] were maintained in media consisting of DMEM/Hams F-12 50/50 Mix (DMEM F12; Corning) supplemented with penicillin streptomycin cocktail (100 U/mL) and FBS (10% v/v) (DMEM F12-10% FBS).\n(§2) Experiment 3: Inhibition of In Vitro Cyst Formation in m-IMCD3 Cells Treated with PDE4 Long Form Activators\n(§3) The mouse Inner Medullary Collecting Duct cell line (m-IMCD3) spontaneously forms cystic spheroids in 3D culture with a Type 1 collagen/Matrigel extracellular matrix. This process can be stimulated with agents which raise intracellular cAMP and is used as an in vitro model for the formation of cystic structures in the kidneys of patients with ADPKD.\n(§4) Rat Collagen I (Fisher Scientific) is prepared on ice by neutralising with 1M NaOH and diluting with a 2× volume of DMEM/F12+10% FBS. This is mixed 1:1.1 with ice cold Matrigel (Corning) for coating plates (coating mix), and 1:0.93 with Matrigel for cell plating (plating mix).\n(§5) The assay is conducted in the wells of a 96-well plate culture dish using a total volume of 130 μL of collagen/Matrigel/DMEM F12-10% FBS suspension in growth media for each matrix plug per individual well. Initially, 30 μL of collagen/Matrigel/DMEM F12-10% FBS (coating mix) is added into the well of a 96 well plate and the collagen is set to a gel by incubating at 37° C. for at least 15 minutes. A second layer of 100 μL collagen/Matrigel suspension (plating mix) containing m-IMCD3 cells (2.75×10^6 m-IMCD3 cells per 96-well plate) is layered over the coating mix and the collagen/Matrigel/cell mix again set to a gel by incubating at 37° C. Cell cultures are maintained at 37° C. in an atmosphere of 5% CO2, 95% air.\n(§6) Between 18 and 24 h after plating, test compound(s) as DMSO stock solutions [0.1% (v/v) final DMSO concentration] and PGE2 (100 nM final concentration) in DMEM F12-10% FBS are added in quadruplicate wells per condition. Media, together with the test compound and PGE2 are replenished after 2 or 3 days. After 6 days of culture z stack images of the wells are captured using the Nikon Eclipse Ti2-E microscope. Nikon General Analysis software is used to measure the following parameters in each well: the mean cyst area, the number of cysts, and the total cyst area.\n(§7) PDE4 long form activators inhibited in vitro cyst formation in m-IMCD3 cells. Data are shown in Table 4 as mean cyst area (%), compared to 100% for (DMSO+PGE2) and 0% for DMSO control.", "units": {"activity at 3 µM": "%"}, "values": [{"smiles": "O=C(c1ccccc1)N1CCc2nc(N3C4CCC3CNC4)ccc2C1", "note": "[Example 120, (2-(3,8-diazabicyclo[3.2.1]octan-8-yl)-7,8-dihydro-1,6-naphthyridin-6(5H)-yl)(phenyl)methanone]", "activity at 3 µM": 1}, {"smiles": "O=C(c1ccc(F)cc1)N1CCc2nc(N3C4CCC3CNC4)ccc2C1", "note": "[Example 123, (2-(3,8-diazabicyclo[3.2.1]octan-8-yl)-7,8-dihydro-1,6-naphthyridin-6(5H)-yl)(4-fluorophenyl)methanone]", "activity at 3 µM": -7}, {"smiles": "O=C([C@H](O)C1CCCC1)N1CCc2nc(N3C4CCC3CNC4)ccc2C1", "note": "[Example 124, (2R)-1-(2-(3,8-diazabicyclo[3.2.1]octan-8-yl)-7,8-dihydro-1,6-naphthyridin-6(5H)-yl)-2-cyclopentyl-2-hydroxyethan-1-one]", "activity at 3 µM": 0}, {"smiles": "O=C(OC1CCCC1)N1CCc2nc(N3C4CCC3CNC4)ccc2C1", "note": "[Example 125, cyclopentyl 2-(3,8-diazabicyclo[3.2.1]octan-8-yl)-7,8-dihydro-1,6-naphthyridine-6(5H)-carboxylate]", "activity at 3 µM": -3}, {"smiles": "CC(C)OC(=O)N1CCc2nc(N3C4CCC3CNC4)ccc2C1", "note": "[Example 126, isopropyl 2-(3,8-diazabicyclo[3.2.1]octan-8-yl)-7,8-dihydro-1,6-naphthyridine-6(5H)-carboxylate]", "activity at 3 µM": 14}, {"smiles": "O=C(OCc1ccccc1)N1CCc2nc(N3C4CCC3CNC4)ccc2C1", "note": "[Example 127, benzyl 2-(3,8-diazabicyclo[3.2.1]octan-8-yl)-7,8-dihydro-1,6-naphthyridine-6(5H)-carboxylate]", "activity at 3 µM": 3}, {"smiles": "CC(C)[C@H](C)C(=O)N1Cc2ccc(N3C4CCC3CNC4)nc2C1", "note": "[Example 128, (2S)-1-(2-(3,8-diazabicyclo[3.2.1]octan-8-yl)-5,7-dihydro-6H-pyrrolo[3,4-b]pyridin-6-yl)-2,3-dimethylbutan-1-one]", "activity at 3 µM": 3}, {"smiles": "O=C(Cc1ccccc1)N1CCc2nc(N3C4CCC3CNC4)ncc2C1", "note": "[Example 133, 1-(2-(3,8-diazabicyclo[3.2.1]octan-8-yl)-7,8-dihydropyrido[4,3-d]pyrimidin-6(5H)-yl)-2-phenylethan-1-one]", "activity at 3 µM": -5}, {"smiles": "O=C(Cc1ccccc1)N1CCc2nc(N3CC4CCC(C3)N4)ncc2C1", "note": "[Example 135, 1-(2-(3,8-diazabicyclo[3.2.1]octan-3-yl)-7,8-dihydropyrido[4,3-d]pyrimidin-6(5H)-yl)-2-phenylethan-1-one]", "activity at 3 µM": -5}, {"smiles": "N#Cc1ccc(CC(=O)N2CCc3nc(N4CCNCC4)ncc3C2)cc1", "note": "[Example 137, 4-(2-oxo-2-(2-(piperazin-1-yl)-7,8-dihydropyrido[4,3-d]pyrimidin-6(5H)-yl)ethyl)benzonitrile]", "activity at 3 µM": 13}]}, {"system": "m-IMCD3 cells", "assay": "Inhibition of PGE2-stimulated in vitro cyst formation in m-IMCD3 cells (3D culture)", "assay_type": "cell-based", "settings": "Mus musculus, mIMCD3, 144 h; 10 μM; mean cyst area; 100% for (DMSO + PGE2) and 0% for DMSO control; 6 days of culture; read-out: % Cyst area* after incubation with 10 μM test compound", "procedure": "as §1, §2, §3, §4, §5, §6, §7", "units": {"activity at 10 µM": "%"}, "values": [{"smiles": "O=C(CC1CCCC1)N1CCc2nc(N3CCN[C@@H](CO)C3)ccc2C1", "note": "(single isomer, unassigned) [Example 131]", "activity at 10 µM": -4}, {"smiles": "O=C(CC1CCCC1)N1CCc2nc(N3CCN[C@H](CO)C3)ccc2C1", "note": "(single isomer, unassigned) [Example 132]", "activity at 10 µM": -4}, {"smiles": "O=C(CC1CCCC1)N1CCc2nc(N3C4CCC3CNC4)ccc2C1", "note": "[Example 39, 1-(2-(3,8-diazabicyclo[3.2.1]octan-8-yl)-7,8-dihydro-1,6-naphthyridin-6(5H)-yl)-2-cyclopentylethan-1-one]", "activity at 10 µM": 5}, {"smiles": "O=C(COc1ccccc1)N1CCc2nc(N3C4CCC3CNC4)ccc2C1", "note": "[Example 41, 1-(2-(3,8-diazabicyclo[3.2.1]octan-8-yl)-7,8-dihydro-1,6-naphthyridin-6(5H)-yl)-2-phenoxyethan-1-one]", "activity at 10 µM": 4}, {"smiles": "CC(C)CC(=O)N1CCc2nc(N3C4CCC3CNC4)ccc2C1", "note": "[Example 43, 1-(2-(3,8-diazabicyclo[3.2.1]octan-8-yl)-7,8-dihydro-1,6-naphthyridin-6(5H)-yl)-3-methylbutan-1-one]", "activity at 10 µM": -4}, {"smiles": "CC(C)C(C)C(=O)N1CCc2nc(N3C4CCC3CNC4)ccc2C1", "note": "(centres unmarked) [Example 44, 1-(2-(3,8-diazabicyclo[3.2.1]octan-8-yl)-7,8-dihydro-1,6-naphthyridin-6(5H)-yl)-2,3-dimethylbutan-1-one]", "activity at 10 µM": -2}, {"smiles": "O=C(C1CCCC1)N1CCc2nc(N3C4CCC3CNC4)ccc2C1", "note": "[Example 47, (2-(3,8-diazabicyclo[3.2.1]octan-8-yl)-7,8-dihydro-1,6-naphthyridin-6(5H)-yl)(cyclopentyl)methanone]", "activity at 10 µM": 5}, {"smiles": "O=C(NC1CCC(F)(F)CC1)N1CCc2nc(N3C4CCC3CNC4)ccc2C1", "note": "[Example 59, 2-(3,8-diazabicyclo[3.2.1]octan-8-yl)-N-(4,4-difluorocyclohexyl)-7,8-dihydro-1,6-naphthyridine-6(5H)-carboxamide]", "activity at 10 µM": -4}, {"smiles": "O=C(N1CCCC1)N1CCc2nc(N3C4CCC3CNC4)ccc2C1", "note": "[Example 61, (2-(3,8-diazabicyclo[3.2.1]octan-8-yl)-7,8-dihydro-1,6-naphthyridin-6(5H)-yl)(pyrrolidin-1-yl)methanone]", "activity at 10 µM": 3}, {"smiles": "CN(C(=O)N1CCc2nc(N3C4CCC3CNC4)ccc2C1)C1CCCC1", "note": "[Example 63, 2-(3,8-diazabicyclo[3.2.1]octan-8-yl)-N-cyclopentyl-N-methyl-7,8-dihydro-1,6-naphthyridine-6(5H)-carboxamide]", "activity at 10 µM": 2}, {"smiles": "CCN(C(=O)N1CCc2nc(N3C4CCC3CNC4)ccc2C1)C1CCCC1", "note": "[Example 64, 2-(3,8-diazabicyclo[3.2.1]octan-8-yl)-N-cyclopentyl-N-ethyl-7,8-dihydro-1,6-naphthyridine-6(5H)-carboxamide]", "activity at 10 µM": 0}, {"smiles": "O=C(CC1CCC(F)(F)CC1)N1Cc2ccc(N3C4CCC3CNC4)nc2C1", "note": "[Example 87, 1-(2-(3,8-diazabicyclo[3.2.1]octan-8-yl)-5,7-dihydro-6H-pyrrolo[3,4-b]pyridin-6-yl)-2-(4,4-difluorocyclohexyl)ethan-1-one]", "activity at 10 µM": 0}, {"smiles": "O=C(NC1CCC(F)(F)CC1)N1Cc2ccc(N3C4CCC3CNC4)nc2C1", "note": "[Example 89, 2-(3,8-diazabicyclo[3.2.1]octan-8-yl)-N-(4,4-difluorocyclohexyl)-5,7-dihydro-6H-pyrrolo[3,4-b]pyridine-6-carboxamide]", "activity at 10 µM": 2}, {"smiles": "CN1CC2CCC(C1)N2c1ccc2c(n1)CN(C(=O)CC1CCC(F)(F)CC1)C2", "note": "[Example 93, 2-(4,4-difluorocyclohexyl)-1-(2-(3-methyl-3,8-diazabicyclo[3.2.1]octan-8-yl)-5,7-dihydro-6H-pyrrolo[3,4-b]pyridin-6-yl)ethan-1-one]", "activity at 10 µM": -3}, {"smiles": "O=C(N1CCCC1)N1Cc2ccc(N3C4CCC3CNC4)nc2C1", "note": "[Example 95, (2-(3,8-diazabicyclo[3.2.1]octan-8-yl)-5,7-dihydro-6H-pyrrolo[3,4-b]pyridin-6-yl)(pyrrolidin-1-yl)methanone]", "activity at 10 µM": -2}, {"smiles": "CCN(CC)C(=O)N1Cc2ccc(N3C4CCC3CNC4)nc2C1", "note": "[Example 96, 2-(3,8-diazabicyclo[3.2.1]octan-8-yl)-N,N-diethyl-5,7-dihydro-6H-pyrrolo[3,4-b]pyridine-6-carboxamide]", "activity at 10 µM": -4}, {"smiles": "CN1CC2CCC(C1)N2c1ccc2c(n1)CCN(C(=O)CC1CCC(F)(F)CC1)C2", "note": "[Example 106, 2-(4,4-difluorocyclohexyl)-1-(2-(3-methyl-3,8-diazabicyclo[3.2.1]octan-8-yl)-7,8-dihydro-1,6-naphthyridin-6(5H)-yl)ethan-1-one]", "activity at 10 µM": 1}, {"smiles": "CC1(CC(=O)N2CCc3nc(N4C5CCC4CNC5)ccc3C2)CCCC1", "note": "[Example 119, 1-(2-(3,8-diazabicyclo[3.2.1]octan-8-yl)-7,8-dihydro-1,6-naphthyridin-6(5H)-yl)-2-(1-methylcyclopentyl)ethan-1-one]", "activity at 10 µM": -4}, {"smiles": "O=C(N1Cc2ccc(N3C4CCC3CNC4)nc2C1)C(F)(F)c1ccccc1", "note": "[Example 130, 1-(2-(3,8-diazabicyclo[3.2.1]octan-8-yl)-5,7-dihydro-6H-pyrrolo[3,4-b]pyridin-6-yl)-2,2-difluoro-2-phenylethan-1-one]", "activity at 10 µM": -10}]}]}
